Each block holds one compound with its values, some of them ahead of it.
Assays:
[1] = target: T1, Gamma-aminobutyric acid receptor subunit alpha-1 (Homo sapiens, UniProt P14867); test: Selectivity interaction (GPCR panel (PDSP screen)) EUB0000548a GABRA1
T1 sequence (P14867 whole entry): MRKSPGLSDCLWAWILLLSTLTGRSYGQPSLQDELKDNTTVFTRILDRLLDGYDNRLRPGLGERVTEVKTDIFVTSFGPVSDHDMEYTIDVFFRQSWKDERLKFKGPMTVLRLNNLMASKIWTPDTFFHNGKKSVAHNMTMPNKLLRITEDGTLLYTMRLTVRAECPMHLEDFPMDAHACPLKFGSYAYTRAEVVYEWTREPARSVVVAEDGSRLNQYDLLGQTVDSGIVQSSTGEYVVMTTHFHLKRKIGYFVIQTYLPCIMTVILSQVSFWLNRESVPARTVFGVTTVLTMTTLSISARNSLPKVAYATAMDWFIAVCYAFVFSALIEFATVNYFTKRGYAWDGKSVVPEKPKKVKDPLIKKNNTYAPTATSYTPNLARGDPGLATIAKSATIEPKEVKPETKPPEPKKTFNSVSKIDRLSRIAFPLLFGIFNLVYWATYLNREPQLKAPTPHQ

[2] = target: T2, Myosin-IIIb (Homo sapiens) (UniProt Q8WXR4); test: Selectivity interaction (KinomeScan (DiscoverX)) EUB0000548a MYO3B; settings: at 1 µM
T2 sequence (whole entry): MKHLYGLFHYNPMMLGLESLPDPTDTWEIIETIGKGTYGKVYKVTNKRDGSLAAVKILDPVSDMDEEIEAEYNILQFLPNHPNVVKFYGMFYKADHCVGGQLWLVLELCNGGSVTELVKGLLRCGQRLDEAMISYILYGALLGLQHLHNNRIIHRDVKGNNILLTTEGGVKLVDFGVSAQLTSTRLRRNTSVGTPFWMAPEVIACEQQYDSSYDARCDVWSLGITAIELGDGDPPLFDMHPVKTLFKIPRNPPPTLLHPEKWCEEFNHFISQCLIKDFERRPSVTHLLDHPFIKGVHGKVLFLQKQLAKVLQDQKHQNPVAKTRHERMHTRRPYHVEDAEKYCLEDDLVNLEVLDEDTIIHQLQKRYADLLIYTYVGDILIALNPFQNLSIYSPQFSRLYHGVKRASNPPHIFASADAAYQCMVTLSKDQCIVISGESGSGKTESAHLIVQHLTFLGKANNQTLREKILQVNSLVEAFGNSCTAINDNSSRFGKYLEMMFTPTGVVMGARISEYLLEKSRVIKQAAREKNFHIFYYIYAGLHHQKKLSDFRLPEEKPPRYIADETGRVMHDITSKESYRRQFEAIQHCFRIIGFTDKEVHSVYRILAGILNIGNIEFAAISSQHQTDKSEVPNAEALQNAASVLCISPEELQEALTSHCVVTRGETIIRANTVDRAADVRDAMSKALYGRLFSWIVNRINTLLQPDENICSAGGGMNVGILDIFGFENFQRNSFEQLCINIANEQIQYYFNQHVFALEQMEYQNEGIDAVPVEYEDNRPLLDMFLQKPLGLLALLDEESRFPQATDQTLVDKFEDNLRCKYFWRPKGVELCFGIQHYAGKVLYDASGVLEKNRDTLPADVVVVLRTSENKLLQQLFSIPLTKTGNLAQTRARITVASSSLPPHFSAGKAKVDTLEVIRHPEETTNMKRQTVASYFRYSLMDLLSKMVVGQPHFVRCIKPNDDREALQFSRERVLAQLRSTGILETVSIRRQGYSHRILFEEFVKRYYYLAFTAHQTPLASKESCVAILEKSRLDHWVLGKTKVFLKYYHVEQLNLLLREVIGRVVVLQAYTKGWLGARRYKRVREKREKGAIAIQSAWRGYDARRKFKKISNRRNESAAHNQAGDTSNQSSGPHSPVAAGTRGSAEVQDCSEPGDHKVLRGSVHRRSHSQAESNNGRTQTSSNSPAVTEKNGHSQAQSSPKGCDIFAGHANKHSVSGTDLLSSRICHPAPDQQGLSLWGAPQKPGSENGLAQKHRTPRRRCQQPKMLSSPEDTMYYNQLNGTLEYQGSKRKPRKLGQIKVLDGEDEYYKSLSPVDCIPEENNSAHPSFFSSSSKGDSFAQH

[3] = target: Receptor-type tyrosine-protein kinase FLT3 (Homo sapiens) (UniProt P36888); test: Selectivity interaction (KinomeScan (DiscoverX)) EUB0000548a FLT3; settings: at 1 µM
[4] = target: Tyrosine-protein kinase Fyn (Homo sapiens, UniProt P06241); test: Selectivity interaction (Kinase panel (HTRF assay)) EUB0000221b FYN
Sequence of Tyrosine-protein kinase Fyn (P06241 whole entry): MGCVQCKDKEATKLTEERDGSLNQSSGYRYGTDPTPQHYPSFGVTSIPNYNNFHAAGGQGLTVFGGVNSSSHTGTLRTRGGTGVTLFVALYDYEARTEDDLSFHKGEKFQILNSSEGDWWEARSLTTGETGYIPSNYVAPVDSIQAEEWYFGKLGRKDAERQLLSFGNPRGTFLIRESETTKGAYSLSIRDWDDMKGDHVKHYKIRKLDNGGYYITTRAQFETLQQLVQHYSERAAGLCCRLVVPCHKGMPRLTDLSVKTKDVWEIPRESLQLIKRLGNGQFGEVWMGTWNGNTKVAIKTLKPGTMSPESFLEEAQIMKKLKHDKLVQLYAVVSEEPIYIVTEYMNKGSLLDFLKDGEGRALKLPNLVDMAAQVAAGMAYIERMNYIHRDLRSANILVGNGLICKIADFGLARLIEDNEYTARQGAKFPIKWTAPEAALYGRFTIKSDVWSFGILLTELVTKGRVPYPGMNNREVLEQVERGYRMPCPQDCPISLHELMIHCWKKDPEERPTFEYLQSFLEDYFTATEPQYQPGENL

[5] = target: Histone-lysine N-methyltransferase SMYD3 (Homo sapiens) (UniProt Q9H7B4); test: Selectivity interaction (Methyltransferase panel) EUB0000221b SMYD3; settings: at 10 µM
Sequence of Histone-lysine N-methyltransferase SMYD3 (Homo sapiens) (Q9H7B4 whole entry): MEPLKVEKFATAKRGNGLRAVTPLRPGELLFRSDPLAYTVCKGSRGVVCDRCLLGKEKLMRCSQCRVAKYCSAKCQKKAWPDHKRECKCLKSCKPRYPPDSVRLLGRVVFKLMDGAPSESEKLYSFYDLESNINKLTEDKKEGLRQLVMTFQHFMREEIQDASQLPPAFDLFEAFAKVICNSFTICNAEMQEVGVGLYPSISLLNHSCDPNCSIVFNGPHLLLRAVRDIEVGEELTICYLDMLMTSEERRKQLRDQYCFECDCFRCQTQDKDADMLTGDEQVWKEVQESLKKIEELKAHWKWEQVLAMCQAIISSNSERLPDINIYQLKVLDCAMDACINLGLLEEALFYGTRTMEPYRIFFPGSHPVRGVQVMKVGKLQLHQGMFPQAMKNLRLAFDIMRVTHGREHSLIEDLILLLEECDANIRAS

[6] = target: Chymotrypsin-like elastase family member 1 (Homo sapiens, UniProt Q9UNI1); test: Selectivity interaction (Serine protease panel) EUB0000735a CELA1
[7] = target: Chymase (Homo sapiens, UniProt P23946); test: Selectivity interaction (Serine protease panel) EUB0000735a CMA1
Sequence of Chymase (P23946 whole entry): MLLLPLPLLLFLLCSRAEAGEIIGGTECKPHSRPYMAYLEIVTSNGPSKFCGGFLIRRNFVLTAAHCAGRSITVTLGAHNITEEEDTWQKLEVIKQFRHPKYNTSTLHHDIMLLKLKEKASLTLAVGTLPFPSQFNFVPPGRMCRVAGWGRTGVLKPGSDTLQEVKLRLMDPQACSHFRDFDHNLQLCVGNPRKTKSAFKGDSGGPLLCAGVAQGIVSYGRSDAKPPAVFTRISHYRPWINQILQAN

[8] = target: Chymotrypsin-C (Homo sapiens, UniProt Q99895); test: Selectivity interaction (Serine protease panel) EUB0000735a CTRC
Sequence of Chymotrypsin-C (Q99895 whole entry): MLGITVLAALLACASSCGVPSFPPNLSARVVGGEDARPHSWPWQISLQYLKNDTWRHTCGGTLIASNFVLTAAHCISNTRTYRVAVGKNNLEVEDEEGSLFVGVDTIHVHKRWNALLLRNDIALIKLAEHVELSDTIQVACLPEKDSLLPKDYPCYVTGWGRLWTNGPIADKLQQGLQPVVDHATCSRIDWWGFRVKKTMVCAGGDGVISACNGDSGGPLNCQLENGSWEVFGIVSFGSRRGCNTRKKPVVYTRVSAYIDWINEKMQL

[9] = target: Cathepsin G (Homo sapiens, UniProt P08311); test: Selectivity interaction (Serine protease panel) EUB0000735a CTSG
Sequence of Cathepsin G (P08311 whole entry): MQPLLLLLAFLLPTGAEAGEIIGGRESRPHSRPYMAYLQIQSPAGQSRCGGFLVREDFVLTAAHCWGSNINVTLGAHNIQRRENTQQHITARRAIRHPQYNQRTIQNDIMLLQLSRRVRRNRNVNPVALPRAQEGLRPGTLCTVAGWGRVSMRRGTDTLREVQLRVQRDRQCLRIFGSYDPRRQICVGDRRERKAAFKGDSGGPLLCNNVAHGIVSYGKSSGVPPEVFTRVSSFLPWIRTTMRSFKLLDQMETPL

[10] = target: Coagulation factor XI (Homo sapiens, UniProt P03951); test: Selectivity interaction (Serine protease panel) EUB0000735a F11
[11] = target: Coagulation factor VII (Homo sapiens, UniProt P08709); test: Selectivity interaction (Serine protease panel) EUB0000735a F7
[12] = target: Coagulation factor IX (Homo sapiens, UniProt P00740); test: Selectivity interaction (Serine protease panel) EUB0000735a F9
Sequence of Coagulation factor IX (P00740 47-191 limits assumed): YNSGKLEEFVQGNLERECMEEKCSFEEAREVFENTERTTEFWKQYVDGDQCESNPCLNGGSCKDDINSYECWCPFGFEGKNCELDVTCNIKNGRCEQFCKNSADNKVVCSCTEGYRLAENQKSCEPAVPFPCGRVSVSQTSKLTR
Sequence of Coagulation factor IX (P00740 227-461 limits assumed): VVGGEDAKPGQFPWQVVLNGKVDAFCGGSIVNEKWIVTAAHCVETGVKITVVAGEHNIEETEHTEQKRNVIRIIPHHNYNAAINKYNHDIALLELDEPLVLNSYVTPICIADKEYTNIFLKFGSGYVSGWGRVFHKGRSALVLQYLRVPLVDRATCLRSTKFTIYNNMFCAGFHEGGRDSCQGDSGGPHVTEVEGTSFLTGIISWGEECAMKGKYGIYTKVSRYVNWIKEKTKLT

[13] = target: Kallikrein-1 (Homo sapiens, UniProt P06870); test: Selectivity interaction (Serine protease panel) EUB0000735a KLK1
[14] = target: Kallikrein-12 (Homo sapiens, UniProt Q9UKR0); test: Selectivity interaction (Serine protease panel) EUB0000735a KLK12
Sequence of Kallikrein-12 (Q9UKR0 whole entry): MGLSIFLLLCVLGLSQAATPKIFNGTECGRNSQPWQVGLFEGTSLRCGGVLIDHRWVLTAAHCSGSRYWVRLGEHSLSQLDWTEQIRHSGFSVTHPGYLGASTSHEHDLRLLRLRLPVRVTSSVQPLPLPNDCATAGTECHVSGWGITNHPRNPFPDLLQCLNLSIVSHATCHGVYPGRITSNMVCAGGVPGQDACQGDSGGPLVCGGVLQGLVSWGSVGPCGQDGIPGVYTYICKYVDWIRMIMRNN

[15] = target: Kallikrein-4 (Homo sapiens, UniProt Q9Y5K2); test: Selectivity interaction (Serine protease panel) EUB0000735a KLK4
Sequence of Kallikrein-4 (Q9Y5K2 whole entry): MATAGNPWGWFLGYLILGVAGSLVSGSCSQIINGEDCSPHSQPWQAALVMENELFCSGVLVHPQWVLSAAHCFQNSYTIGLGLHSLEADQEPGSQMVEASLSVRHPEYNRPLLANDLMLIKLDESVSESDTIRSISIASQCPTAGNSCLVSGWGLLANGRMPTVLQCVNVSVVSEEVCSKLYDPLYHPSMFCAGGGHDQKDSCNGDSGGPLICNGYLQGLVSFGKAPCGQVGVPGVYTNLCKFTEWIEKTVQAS

[16] = target: Kallikrein-5 (Homo sapiens, UniProt Q9Y337); test: Selectivity interaction (Serine protease panel) EUB0000735a KLK5
Sequence of Kallikrein-5 (Q9Y337 whole entry): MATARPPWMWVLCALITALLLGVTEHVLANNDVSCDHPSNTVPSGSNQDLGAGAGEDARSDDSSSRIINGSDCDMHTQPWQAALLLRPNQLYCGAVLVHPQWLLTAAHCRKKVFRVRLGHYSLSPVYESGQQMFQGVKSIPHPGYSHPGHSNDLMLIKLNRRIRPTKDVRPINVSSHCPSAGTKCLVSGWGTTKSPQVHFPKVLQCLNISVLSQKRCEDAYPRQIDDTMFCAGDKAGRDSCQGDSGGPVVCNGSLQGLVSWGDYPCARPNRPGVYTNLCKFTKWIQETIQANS

[17] = target: Kallikrein-7 (Homo sapiens, UniProt P49862); test: Selectivity interaction (Serine protease panel) EUB0000735a KLK7
[18] = target: Plasma kallikrein (Homo sapiens, UniProt P03952); test: Selectivity interaction (Serine protease panel) EUB0000735a KLKB1
[19] = target: Plasminogen (Homo sapiens, UniProt P00747); test: Selectivity interaction (Serine protease panel) EUB0000735a PLG
Sequence of Plasminogen (P00747 97-580 limits assumed): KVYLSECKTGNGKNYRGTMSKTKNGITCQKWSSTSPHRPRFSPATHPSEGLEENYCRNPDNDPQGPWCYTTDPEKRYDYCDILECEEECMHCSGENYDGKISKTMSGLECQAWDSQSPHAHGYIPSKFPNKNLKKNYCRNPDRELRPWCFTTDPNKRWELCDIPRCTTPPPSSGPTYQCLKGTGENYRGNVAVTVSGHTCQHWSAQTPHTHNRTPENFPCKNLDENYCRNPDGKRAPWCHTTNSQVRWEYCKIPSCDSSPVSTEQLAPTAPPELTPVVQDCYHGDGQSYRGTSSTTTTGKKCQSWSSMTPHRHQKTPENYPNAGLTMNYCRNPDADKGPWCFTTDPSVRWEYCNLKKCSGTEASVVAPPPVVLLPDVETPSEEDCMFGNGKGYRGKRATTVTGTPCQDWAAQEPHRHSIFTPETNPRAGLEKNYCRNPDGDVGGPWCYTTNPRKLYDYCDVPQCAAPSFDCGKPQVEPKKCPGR
Sequence of Plasminogen (P00747 581-810 limits assumed): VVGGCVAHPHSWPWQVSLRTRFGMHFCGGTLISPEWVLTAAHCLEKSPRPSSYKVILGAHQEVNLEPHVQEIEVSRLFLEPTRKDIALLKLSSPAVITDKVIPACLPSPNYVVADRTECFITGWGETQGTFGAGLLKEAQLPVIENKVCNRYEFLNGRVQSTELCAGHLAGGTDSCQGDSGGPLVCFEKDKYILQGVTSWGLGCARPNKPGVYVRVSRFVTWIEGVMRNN

[20] = target: Serine protease 1 (Homo sapiens, UniProt P07477); test: Selectivity interaction (Serine protease panel) EUB0000735a PRSS1
Sequence of Serine protease 1 (P07477 whole entry): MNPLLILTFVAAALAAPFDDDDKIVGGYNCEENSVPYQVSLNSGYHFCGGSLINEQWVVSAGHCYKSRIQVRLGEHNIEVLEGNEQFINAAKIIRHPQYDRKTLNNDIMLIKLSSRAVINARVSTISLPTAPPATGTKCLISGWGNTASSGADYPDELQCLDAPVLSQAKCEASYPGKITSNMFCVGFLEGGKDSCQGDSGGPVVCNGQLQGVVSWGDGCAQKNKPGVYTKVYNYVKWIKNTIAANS

[21] = target: Dipeptidyl peptidase 2 (Homo sapiens, UniProt Q9UHL4); test: Selectivity interaction (Serine protease panel) EUB0000735a DPP7
[22] = target: Dipeptidyl peptidase 4 (Homo sapiens, UniProt P27487); test: Selectivity interaction (Serine protease panel) EUB0000735a DPP4
Sequence of Dipeptidyl peptidase 4 (P27487 whole entry): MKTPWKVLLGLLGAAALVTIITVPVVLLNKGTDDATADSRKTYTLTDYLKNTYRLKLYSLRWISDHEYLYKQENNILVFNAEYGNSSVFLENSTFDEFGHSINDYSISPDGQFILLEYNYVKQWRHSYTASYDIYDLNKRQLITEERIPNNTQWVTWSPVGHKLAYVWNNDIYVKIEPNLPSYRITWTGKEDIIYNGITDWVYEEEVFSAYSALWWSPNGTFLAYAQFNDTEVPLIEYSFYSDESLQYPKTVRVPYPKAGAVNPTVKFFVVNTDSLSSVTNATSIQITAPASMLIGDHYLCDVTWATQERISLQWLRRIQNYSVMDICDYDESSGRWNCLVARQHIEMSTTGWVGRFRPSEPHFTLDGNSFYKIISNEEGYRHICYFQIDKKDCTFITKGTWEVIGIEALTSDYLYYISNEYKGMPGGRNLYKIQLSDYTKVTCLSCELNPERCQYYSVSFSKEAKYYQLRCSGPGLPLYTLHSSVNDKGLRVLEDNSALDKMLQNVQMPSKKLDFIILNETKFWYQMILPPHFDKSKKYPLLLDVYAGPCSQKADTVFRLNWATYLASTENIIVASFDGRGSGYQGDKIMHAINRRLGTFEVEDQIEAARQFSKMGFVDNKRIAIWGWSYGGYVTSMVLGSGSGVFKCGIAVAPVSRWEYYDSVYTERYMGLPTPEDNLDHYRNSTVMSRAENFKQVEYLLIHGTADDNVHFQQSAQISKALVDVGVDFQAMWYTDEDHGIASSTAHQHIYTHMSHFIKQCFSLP

[23] = target: Prolyl endopeptidase FAP (Homo sapiens, UniProt Q12884); test: Selectivity interaction (Serine protease panel) EUB0000735a FAP
[24] = target: cAMP-dependent protein kinase catalytic subunit beta (Homo sapiens) (UniProt P22694); test: Selectivity interaction (KinomeScan (DiscoverX)) EUB0000735a PRKACB; settings: at 1 µM
[25] = target: cGMP-dependent protein kinase 1 (Homo sapiens) (UniProt Q13976); test: Selectivity interaction (KinomeScan (DiscoverX)) EUB0000735a PRKG1; settings: at 1 µM
[26] = target: T1, Gamma-aminobutyric acid receptor subunit alpha-1; test: Selectivity interaction (GPCR panel (PDSP screen)) EUB0000302b GABRA1

Ki [1]: 0.25 µM
% of control [2]: 29%
% of control [3]: 32%
SMILES: NS(=O)(=O)c1cc(NC(=O)C2(c3ccccc3Cl)CC2)ccc1Oc1cccc(Cl)c1 [BAY-207]

IC50 [4]: 5.71 µM
% of activity remaining [5]: 40%
SMILES: C[C@H]1CC(=O)Nc2cc(C(=O)NCCC3CC3)ccc2N1C(=O)N1CC2CC2C1 (stereo partly specified)

IC50 [6]: > 30 µM
IC50 [7]: > 30 µM
IC50 [8]: > 30 µM
IC50 [9]: > 30 µM
IC50 [10]: > 30 µM
IC50 [11]: > 30 µM
IC50 [12]: > 30 µM
IC50 [13]: > 30 µM
IC50 [14]: > 30 µM
IC50 [15]: > 30 µM
IC50 [16]: > 30 µM
IC50 [17]: > 30 µM
IC50 [18]: > 30 µM
IC50 [19]: > 30 µM
IC50 [20]: > 30 µM
IC50 [21]: > 30 µM
IC50 [22]: > 30 µM
IC50 [23]: > 30 µM
% of control [24]: 48.7%
% of control [25]: 45.5%
SMILES: CC(=O)C1=C(C)N(c2cccc(C(F)(F)F)c2)C(=O)N[C@@H]1c1ccc(C#N)nc1 [BAY-678]

Ki [26]: 1.53 µM
SMILES: CCNC(=O)c1cc2c(N3CCOC[C@@H]3C)ccnc2[nH]1

— ChEMBL document CHEMBL5212743, “Selectivity Literature for EUbOPEN Chemogenomics Library wave 3” (2023)
